According to patent publication US20230218572A1, “COMPOSITIONS AND METHODS FOR IMPROVED MESENCHYMAL STEM CELL THERAPY” (Versitech Limited, priority 2021, published 2023):
Entries after “also recorded” stand apart in the source; their conditions may differ.

Columns and labels:
CD55 surface protein = CD55 surface protein expression on hMSCs by flow cytometry; assay type: cell-based, human; settings: AT-, BM-, UC-hMSC, 5 μM Atr or 5 μM Erl, 24 hr
Description: FIG. 11 is a bar graph of CD55 surface expression on hMSCs following 24 hr in presence of Atorvastatin (Atr) or Erlotinib (Erl), showing % of CD55+ cells (0-100) for each MSC group Adipose Tissue (AT; red), Bone Marrow (BM; blue), and Umbilical Cord (UC; green), respectively, in the presence of nothing (untreated control) 5 μM Atr, or 5 μM Erl.
(§1) The expression of CD55 in hMSC was then validated by RT-qPCR and flow cytometry.

CD55 mRNA = CD55 mRNA expression of hMSCs by RT-qPCR; assay type: cell-based, human; settings: for CD55 mRNA expression of hMSCs compared to untreated control: AT-, BM-, UC-hMSC, Erlotinib 2, 5, 10 μM or atorvastatin 2, 5, 25, 50 μM, within 24 hours, normalized to GADPH; for Dose dependence of CD55 upregulation in hMSCs: Erlotinib 2-10 μM, atorvastatin 2-50 μM; for Expression of CD55 on hMSC vs untreated control (mRNA or protein level not specified): drug treatment of hMSC
Description: (§2) FIG. 9 is a bar graph of CD55 mRNA expression of hMSCs in presence of atorvastatin, showing % Normalized to GADPH (0-25) for each MSC group Adipose Tissue (AT; red), Bone Marrow (BM; blue), and Umbilical Cord (UC; green), respectively, in the presence of 0 μM (untreated control) 2 μM, 5 μM, 25 μM, and 50 μM atorvastatin.
as §2, with “10” for “9”, “Erlotinib,” for “atorvastatin,”, “μM,” for “μM, 25 μM,”, “10” for “50”, “Erlotinib.” for “atorvastatin.”
as §1
hMSC were treated with Erlotinib, which is an EGFR inhibitor, on different dosages within 24 hours, […]

| SMILES | CD55 surface protein level on hMSCs compared with untreated control (CD55 surface protein) | CD55 mRNA expression of hMSCs compared to untreated control (CD55 mRNA) | Dose dependence of CD55 upregulation in hMSCs (CD55 mRNA) | Expression of CD55 on hMSC vs untreated control (mRNA or protein level not specified) (CD55 mRNA) |
| --- | --- | --- | --- | --- |
| CC(C)c1c(C(=O)Nc2ccccc2)c(-c2ccccc2)c(-c2ccc(F)cc2)n1CC[C@@H](O)C[C@@H](O)CC(=O)O [atorvastatin, Atorvastatin] | increase the expression of CD55 of hMSCs in both mRNA and protein level | increase the expression of CD55 of hMSCs in both mRNA and protein level | there was not a similar dose dependent relationship | significantly increased of CD55 expression; also recorded: significantly higher expression of CD55 than untreated control |
| C#Cc1cccc(Nc2ncnc3cc(OCCOC)c(OCCOC)cc23)c1 [erlotinib, Erlotinib] | significantly upregulated compared with untreated control | increased CD55 expression with significance difference in mRNA level compared to untreated control | dose dependent manner | significantly increased of CD55 expression; also recorded: significantly higher expression of CD55 than untreated control |
